Substitutions are numbered along the chain they refer to.
How the values were obtained:
Type in all cases: cell-based
AR protein [1] = target: T1, AR protein (Homo sapiens, UniProt P10275, T878A); experiment: Degradation of AR protein in LNCaP cells (Western blot); settings: LNCaP cells, 8 hours, Western blot grayscale, GAPDH internal reference; for inhibition at 0.01 µM: compound 10 nM, read-out: Degradation rates of the AR protein in LNCaP cells, 10 nM (%); for inhibition at 0.1 µM: compound 100 nM, read-out: Degradation rates of the AR protein in LNCaP cells, 100 nM (%)
T1 construct: degradation activity of the compounds disclosed in the present disclosure on AR protein in LNCaP cells; host or cells: LNCaP FGC
T1 sequence (P10275 1-920 T878A): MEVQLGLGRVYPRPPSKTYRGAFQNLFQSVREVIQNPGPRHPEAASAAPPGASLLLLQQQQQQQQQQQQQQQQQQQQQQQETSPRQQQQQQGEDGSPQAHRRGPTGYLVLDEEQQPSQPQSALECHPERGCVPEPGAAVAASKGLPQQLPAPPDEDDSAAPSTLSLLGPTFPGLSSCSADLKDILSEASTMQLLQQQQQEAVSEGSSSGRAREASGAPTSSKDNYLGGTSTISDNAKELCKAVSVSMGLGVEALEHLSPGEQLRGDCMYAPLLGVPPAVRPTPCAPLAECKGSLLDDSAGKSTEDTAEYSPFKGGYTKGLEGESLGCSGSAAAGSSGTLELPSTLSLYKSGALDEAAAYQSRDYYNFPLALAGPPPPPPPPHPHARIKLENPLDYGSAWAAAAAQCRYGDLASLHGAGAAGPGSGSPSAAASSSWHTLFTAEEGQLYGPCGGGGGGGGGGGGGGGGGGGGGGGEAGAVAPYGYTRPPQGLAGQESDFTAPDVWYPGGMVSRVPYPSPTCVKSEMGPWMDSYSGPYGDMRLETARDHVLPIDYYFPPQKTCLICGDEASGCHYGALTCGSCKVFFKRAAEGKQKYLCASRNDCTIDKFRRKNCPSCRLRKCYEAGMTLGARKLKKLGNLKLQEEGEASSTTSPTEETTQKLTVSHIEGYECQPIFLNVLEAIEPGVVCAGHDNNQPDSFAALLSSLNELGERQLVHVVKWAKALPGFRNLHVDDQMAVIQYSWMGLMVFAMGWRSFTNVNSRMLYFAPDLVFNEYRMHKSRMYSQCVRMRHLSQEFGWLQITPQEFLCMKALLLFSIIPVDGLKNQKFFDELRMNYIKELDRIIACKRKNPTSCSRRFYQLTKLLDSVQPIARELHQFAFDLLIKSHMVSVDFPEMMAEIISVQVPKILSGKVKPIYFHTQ
Method in brief: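 Percent AR degradation was derived from GAPDH-normalised Western blot band intensities (infrared detection) in LNCaP lysates.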

AR protein [2] = target: T2, AR protein (Homo sapiens, UniProt P10275); experiment: Degradation of AR protein in VCaP cells (Western blot); settings: 8 hours; for inhibition at 0.01 µM: compound at 10 nM, read-out: Degradation rate of the AR protein in VCaP cells, 10 nM (%); for inhibition at 0.1 µM: compound at 100 nM, read-out: Degradation rate of the AR protein in VCaP cells, 100 nM (%)
T2 construct: degradation activity of the compounds disclosed in the present disclosure on AR protein in VCaP cells; host or cells: VCaP
T2 sequence (P10275 1-920): T1 sequence (P10275 1-920 T878A) with A878T
Method in brief: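 Western blot readout: AR band grayscale normalised to GAPDH, used to derive degradation rate. Lysates came from VCaP cells exposed to compound for 8 h, with solvent controls run in parallel.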

LNCaP FGC cells = experiment: Inhibition of proliferation of LNCaP cells (WST-8); settings: Homo sapiens, LNCaP, 96 h, LNCaP FGC cells, 96 hours, WST-8 absorbance at 450 nm; read-out: IC50 for inhibiting the proliferation of LNCaP cells
Experimental: The cells were cultured in a cell culture incubator with 5% CO2 at 37° C. overnight. […] On the sixth day, 96 well plates were taken out, and 20 μL of WST-8 (Beytime, C0040) reagent was added to each well.

Row | SMILES | inhibition at 0.01 µM (AR protein [1]) | inhibition at 0.1 µM (AR protein [1]) | inhibition at 0.01 µM (AR protein [2]) | inhibition at 0.1 µM (AR protein [2]) | IC50 (LNCaP FGC cells)
1 | N#Cc1ccc(O[C@H]2CC[C@H](NC(=O)c3ccc(C#CC4CC5(C4)CC(N4CCC6(CC4)COc4c6ccc6c4CN(C4CCC(=O)NC4=O)C6=O)C5)nn3)CC2)cc1Cl (some centres unmarked) [Compound 252] | 56% | 70% | 80% | 87% | 6240 nM
2 | COc1cc(OC2CCC(NC(=O)c3cnc(N4CCC(C)(CN5CCC6(CC5)COc5c6ccc6c5CN(C5CCC(=O)NC5=O)C6=O)CC4)nc3)CC2)ccc1C#N (centres unmarked) [Compound 247] | -10% | 27% | 53% | 70% | 15 nM
3 | CC1(CN2CCC3(CC2)COc2c3ccc3c2CN(C2CCC(=O)NC2=O)C3=O)CCN(c2ccc(C(=O)N[C@H]3C(C)(C)[C@H](Oc4ccc(C#N)c(Cl)c4)C3(C)C)cc2)CC1 (some centres unmarked) [Compound 222] | 4% | 75% | 8% | 61% | 880 nM
4 | COc1cc(O[C@H]2C(C)(C)[C@H](NC(=O)c3ccc(N4CCC(C)(CN5CCC6(CCc7ccc8c(c7O6)C(=O)N(C6CCC(=O)NC6=O)C8=O)CC5)CC4)cc3)C2(C)C)ccc1C#N (some centres unmarked) [Compound 268] | 15% | 31% | -26% | -32% | 88600 nM
5 | COc1cc(O[C@H]2C(C)(C)[C@H](NC(=O)c3ccc(N4CCC(C#N)(CN5CCC6(CC5)COc5c6ccc6c5CN(C5CCC(=O)NC5=O)C6=O)CC4)nn3)C2(C)C)ccc1C#N (some centres unmarked) [Compound 224] | 41% | 52% | 24% | 57% | 11 nM
6 | COc1cc(O[C@H]2C(C)(C)[C@H](NC(=O)c3ccc(N4CCC(F)(CN5CC6(CCc7ccc8c(c7O6)C(=O)N(C6CCC(=O)NC6=O)C8=O)C5)CC4)cc3)C2(C)C)ccc1C#N (some centres unmarked) [Compound 274] | -3% | -5% | 4% | -13% | 84900 nM
7 | N#Cc1ccc(O[C@H]2CC[C@H](NC(=O)c3ccc(N4CCC5(CCC(C(=O)N6CCC7(CC6)COc6c7ccc7c6CN(C6CCC(=O)NC6=O)C7=O)CC5)CC4)nn3)CC2)cc1Cl (some centres unmarked) [Compound 253] | 37% | 41% | 10% | 55% | 550 nM
8 | N#Cc1ccc(O[C@H]2CC[C@H](NC(=O)c3ccc(N4CCC5(CC4)CC(N4CCC6(CC4)COc4c(ccc7c4C(=O)N(C4CCC(=O)NC4=O)C7)C6)C5)nn3)CC2)cc1Cl (some centres unmarked) [Compound 188] | 68% | 66% | 63% | 79% | 3720 nM
9 | N#Cc1ccc(O[C@H]2CC[C@H](NC(=O)c3ccc(N4CCC5(CC4)COc4c5ccc5c4CN(C4CCC(=O)NC4=O)C5=O)nn3)CC2)cc1Cl (some centres unmarked) [Compound 200] | 44% | 27% | 25% | 57% | 91000 nM
10 | COCC1(CN2CCC3(CC2)COc2c3ccc3c2CN(C2CCC(=O)NC2=O)C3=O)CCN(c2ccc(C(=O)N[C@H]3CC[C@H](Oc4ccc(C#N)c(Cl)c4)CC3)nn2)CC1 (some centres unmarked) [Compound 258] | 71% | 67% | 60% | 84% | 17 nM
